What was measured:
[1] = system: P. aeruginosa MB9798 (efflux+, IMP-1 plasmid); settings: for MB9798 MITC95 P. aeruginosa uM Efflux WT: efflux + (MB9798) strain, imipenem at 2 μg/mL, in the presence of a class A, C, D serine β-lactamase inhibitor closely related to relebactam; for Efflux ratio: fold difference between efflux+ (MB9798) and efflux− (MB9799) strains
Text: (§1) The strain background is Pseudomonas aeruginosa PAO1. A wild-type (M135919) and an isogenic strain in which multiple efflux pumps have been disrupted genetically were used. The MBL IMP-1, obtained from a clinical isolate was introduced into the strain pair by the following process:
(§2) The plasmid DNA was transformed into parental MB5919 (oprD+, efflux+, inducible AmpC) and MB5890 (oprD+, efflux−, inducible AmpC) isogenic strains by electroporation.
(§3) The strain set was then used as a pair to determine the effect of metallo-β-lactamase inhibitors of Formula I on the MIC of imipenem and/or ceftazidime. A fixed concentration of antibiotic is included in standard microbroth MIC tests, usually at the CLSI breakpoint concentration, A fixed amount of a class A/C beta-lactamase inhibitor is also included to inhibit the resident Pseudomonas AmpC enzyme. A serial titration of the metallo-β-lactamase inhibitor was included and the concentration of metallo-β-lactamase inhibitor which restores susceptibility of the strain to the included antibiotic was recorded. That concentration of metallo-β-lactamase inhibitor was then compared between the two strains to determine the fold difference between the efflux+(MB9798) and efflux−(MI39799) strains, which indicates the extent to which the MBLi is subject to efflux.

IMP-1 = IMP-1 (Serratia marcescens, UniProt P52699); test: biochemical; settings: CCF2-FA fluorescence assay, 2 hours at 25° C.; read-out: IMP1 IC50
IMP-1, sequence (P52699 whole entry, looked up, species assumed): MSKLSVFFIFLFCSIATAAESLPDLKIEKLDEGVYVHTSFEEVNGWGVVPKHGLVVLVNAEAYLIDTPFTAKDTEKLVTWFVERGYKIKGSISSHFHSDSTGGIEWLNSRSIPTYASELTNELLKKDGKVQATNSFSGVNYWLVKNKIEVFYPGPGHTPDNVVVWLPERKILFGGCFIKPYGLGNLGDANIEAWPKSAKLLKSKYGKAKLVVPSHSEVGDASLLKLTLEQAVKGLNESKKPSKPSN
Protocol: (§4) The Class B enzyme activities were measured in the presence of the test inhibitor in a fluorescence assay against a commercially available substrate consisting of a cephalosporin core linking 7-hydroxycoumarin to fluorescein (CCF2-FA). The enzyme (NDM-1, IMP-1 or VIM-1) and the substrate were diluted in 100 mM KH2PO4 buffer (pH 7) containing 0.005% Tween-20 and 10 μM ZnSO4. In the assay, the final concentration of enzyme was 1 pM, 2 pM and 30 pM for NDM-1, IMP-1 and VIM-1, respectively, and the final concentration of CCF2-FA was 1.25 μM. The test inhibitor was dissolved in dimethylsulfoxide and diluted 1:50 in the assay, resulting in a final concentration range of 20 μM to 0.00063 μM. In a 384-well microplate, the test inhibitor was incubated with the metallo-β-lactamase enzyme and the substrate for 2 hours at 25° C. Fluorescence at 460 nm following excitation at 405 nm was measured. The IC50 value was determined from semi-logarithmic plots of enzyme inhibition versus inhibitor concentration, with a curve generated using a 4-parameter fit.

VIM-1 = VIM-1 (Pseudomonas aeruginosa (strain ATCC 15692 / DSM 22644 / CIP 104116 / JCM 14847 / LMG 12228 / 1C / PRS 101 / PAO1), UniProt A0A0F7KYQ8); test: biochemical; settings: CCF2-FA fluorescence assay, 2 hours at 25° C.; read-out: VIM1 IC50
Protocol: as §4

[2] = system: P. aeruginosa MB9799 (efflux-, IMP-1 plasmid); assay type: cell-based, Pseudomonas aeruginosa; settings: efflux − (MB9799) strain; imipenem at 2 μg/mL; in the presence of a class A, C, D serine β-lactamase inhibitor closely related to relebactam
Text: as §1, §2, §3

[3] = system: Escherichia coli expressing NDM-1 (CLB30016); assay type: cell-based; settings: with imipenem 1 μg/ml; 95% inhibition of bacterial growth
Protocol: (§5) The bacterial strains tested included the clinical strains Escherichia coil expressing NDM-1 (CLB30005, CLB30016), Serratia marcescens expressing IMP-1 (CL5741), and Klebsiella pneumoniae expressing VIM-1 (H-LMA599644). Inhibitor activity was measured in the presence and absence of imipenem in a 384-well microplate.
(§6) The clinical strains CLB30016, CL5741 and IHMA599644 were grown on trypticase soy agar containing 5% sheep's blood. The bacteria on agar plates were incubated at 35° C. with humidity overnight. The following day, individual colonies from each clinical strain were picked and resuspended in 5 ml saline to attain an OD600 of […], for CLB30016, C15741 and IHMA599644, respectively. These were further diluted 1:100 into 1.1× CAMHB and used to inoculate the test wells as described below.
(§7) Imipenem in 10 mM 3-(N-morpholino)propanesulfonic acid (MOPS, pH 7) was stored in single use aliquots at −80° C. […] On the day of the assay, 4 μl of antibiotic was added to 45 μl of bacteria followed by 1 μl of test compound and mixed by pipetting and with an orbital shaker. The concentration of antibiotic used in the assay was 1 μg/ml. Microplates were covered and incubated at 35° C. for 22 hours to 24 hours. At the end of the incubation, absorbance was determined using a spectrophotometer. The synergistic concentration of MBLI was determined by identifying the lowest concentration of test compound in the presence of a given concentration of antibiotic that was required to inhibit 95% of the growth of the bacteria. The results for Examples 1-209 are reported in Table 1, expressed as the concentration of compound that potentiated the action of antibiotic (imipenem) affecting 95% inhibition of bacterial growth (MITC95).

[4] = system: Serratia marcescens expressing IMP-1 (CL5741); assay type: cell-based; settings: with imipenem 1 μg/ml; 95% inhibition of bacterial growth
Protocol: as §5, §6, §7

[5] = system: Klebsiella pneumoniae expressing VIM-1 (IHMA599644); assay type: cell-based; settings: with imipenem 1 μg/ml; 95% inhibition of bacterial growth
Protocol: as §5, §6, §7

NDM-1 = NDM-1 (Klebsiella pneumoniae, UniProt C7C422); test: biochemical; assay type: biochemical; settings: CCF2-FA fluorescence assay, 2 hours at 25° C.
NDM-1, sequence (C7C422 whole entry, looked up, species assumed): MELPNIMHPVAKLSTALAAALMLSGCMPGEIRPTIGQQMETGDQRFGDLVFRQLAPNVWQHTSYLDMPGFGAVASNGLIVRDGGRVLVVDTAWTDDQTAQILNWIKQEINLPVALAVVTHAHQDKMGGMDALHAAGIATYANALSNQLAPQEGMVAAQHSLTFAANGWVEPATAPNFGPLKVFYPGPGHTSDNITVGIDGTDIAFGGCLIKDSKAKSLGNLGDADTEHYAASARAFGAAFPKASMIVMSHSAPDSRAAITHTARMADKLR
Protocol: as §4

VIM-2 = VIM-2 (Escherichia coli, UniProt Q5U7L7); test: biochemical; settings: CCF2-FA fluorescence assay; read-out: VIM2 IC50

NCCS(=O)(=O)c1ccc(N2CCOCC2)c(-c2nnn[nH]2)c1S(N)(=O)=O [Example 15]
MB9798 MITC95 P. aeruginosa uM Efflux WT [1]: 12.50 µM | Efflux ratio [1]: 8.00 | IC50 (IMP-1): 6.5 nM | IC50 (VIM-1): 2.51 nM | MB9799 MITC95 P. aeruginosa uM Efflux Mutant [2]: 1.56 µM | CLB30016 E. coli MITC95 NDM [3]: 1.56 µM | CL5741 S. marcescens MITC95 IMP [4]: 3.13 µM | IHMA599644 K. pneumoniae MITC95 VIM [5]: 3.13 µM | IC50 (NDM-1): 11.5 nM

NC[C@@H](O)CNS(=O)(=O)c1ccc(N2CC[C@@H](N)[C@@H](F)C2)c(-c2nn[nH]n2)c1S(N)(=O)=O (single isomer, unassigned) [Example 1]
MB9798 MITC95 P. aeruginosa uM Efflux WT [1]: 0.78 µM | Efflux ratio [1]: 2.00 | IC50 (IMP-1): 5.02 nM | IC50 (VIM-1): 0.31 nM | MB9799 MITC95 P. aeruginosa uM Efflux Mutant [2]: 0.39 µM | IC50 (VIM-2): 3.58 nM | CLB30016 E. coli MITC95 NDM [3]: 0.10 µM | CL5741 S. marcescens MITC95 IMP [4]: 0.20 µM | IHMA599644 K. pneumoniae MITC95 VIM [5]: 0.39 µM

NCCS(=O)(=O)c1ccc(N2CCCCC2)c(-c2nnn[nH]2)c1S(N)(=O)=O [Example 14]
MB9798 MITC95 P. aeruginosa uM Efflux WT [1]: 12.50 µM | Efflux ratio [1]: 16.00 | IC50 (IMP-1): 1.34 nM | IC50 (VIM-1): 0.73 nM | MB9799 MITC95 P. aeruginosa uM Efflux Mutant [2]: 0.78 µM | CLB30016 E. coli MITC95 NDM [3]: 0.78 µM | CL5741 S. marcescens MITC95 IMP [4]: 2.34 µM | IHMA599644 K. pneumoniae MITC95 VIM [5]: 2.34 µM | IC50 (NDM-1): 3.94 nM

NS(=O)(=O)c1c(S(=O)(=O)C2CNC2)ccc(N2CCC3(CCNCC3)CC2)c1-c1nnn[nH]1 [Example 30, 6-(azetidin-3-ylsulfonyl)-3-(3,9-diazaspiro[5.5]undecan-3-yl)-2-(1H-tetrazol-5-yl)benzenesulfonamide]
MB9798 MITC95 P. aeruginosa uM Efflux WT [1]: 1.56 µM | Efflux ratio [1]: 2.00 | IC50 (IMP-1): 5.2 nM | IC50 (VIM-1): 2.01 nM | MB9799 MITC95 P. aeruginosa uM Efflux Mutant [2]: 0.78 µM | CLB30016 E. coli MITC95 NDM [3]: 0.78 µM | CL5741 S. marcescens MITC95 IMP [4]: 1.56 µM | IHMA599644 K. pneumoniae MITC95 VIM [5]: 1.56 µM | IC50 (NDM-1): 2.62 nM

NC[C@@H](O)CNS(=O)(=O)c1ccc(Nc2ncc[nH]2)c(-c2nn[nH]n2)c1S(N)(=O)=O [Example 203, (R)-4-((1H-imidazol-2-yl)amino)-N1-(3-amino-2-hydroxypropyl)-3-(2-tetrazol-5-yl)benzene-1,2-disulfonamide bis(2,2,2-trifluoroacetate)]
MB9798 MITC95 P. aeruginosa uM Efflux WT [1]: 3.13 µM | Efflux ratio [1]: 2.00 | IC50 (IMP-1): 26.4 nM | IC50 (VIM-1): 8.5 nM | MB9799 MITC95 P. aeruginosa uM Efflux Mutant [2]: 1.56 µM | IC50 (VIM-2): 19.6 nM | CLB30016 E. coli MITC95 NDM [3]: 0.20 µM | CL5741 S. marcescens MITC95 IMP [4]: 0.78 µM | IHMA599644 K. pneumoniae MITC95 VIM [5]: 0.78 µM

N[C@@H]1CCCN(c2ccc(S(=O)(=O)C3CNC3)c(S(N)(=O)=O)c2-c2nnn[nH]2)C1 [Example 28, (R)-3-(3-aminopiperidin-1-yl)-6-(azetidin-3-ylsulfonyl)-2-(1H-tetrazol-5-yl)benzenesulfonamide]
MB9798 MITC95 P. aeruginosa uM Efflux WT [1]: 50.00 µM | Efflux ratio [1]: 8.00 | IC50 (IMP-1): 463 nM | IC50 (VIM-1): 37.2 nM | MB9799 MITC95 P. aeruginosa uM Efflux Mutant [2]: 6.25 µM | CLB30016 E. coli MITC95 NDM [3]: 0.78 µM | CL5741 S. marcescens MITC95 IMP [4]: 6.25 µM | IHMA599644 K. pneumoniae MITC95 VIM [5]: 1.56 µM | IC50 (NDM-1): 61.9 nM

NC[C@@H](O)CNS(=O)(=O)c1ccc(N2CCC3(CC2)CNC(=O)OC3)c(-c2nn[nH]n2)c1S(N)(=O)=O [Example 26, (R)-N^1-(3-amino-2-hydroxypropyl)-4-(3-oxo-2-oxa-4,9-diazaspiro[5.5]undecan-9-yl)-3-(2H-tetrazol-5-yl)benzene-1,2-disulfonamide]
MB9798 MITC95 P. aeruginosa uM Efflux WT [1]: 6.25 µM | Efflux ratio [1]: 2.00 | IC50 (IMP-1): 1.02 nM | IC50 (VIM-1): 0.63 nM | MB9799 MITC95 P. aeruginosa uM Efflux Mutant [2]: 3.13 µM | IC50 (VIM-2): 2.74 nM | CLB30016 E. coli MITC95 NDM [3]: 12.50 µM | CL5741 S. marcescens MITC95 IMP [4]: 6.25 µM | IHMA599644 K. pneumoniae MITC95 VIM [5]: 12.50 µM

NC1CCCCN(c2ccc(S(=O)(=O)C3CNC3)c(S(N)(=O)=O)c2-c2nnn[nH]2)C1 (stereo not drawn) [Example 33, 3-(3-aminoazepan-1-yl)-6-(azetidin-3-ylsulfonyl)-2-(1H-tetrazol-5-yl)benzenesulfonamide]
MB9798 MITC95 P. aeruginosa uM Efflux WT [1]: 25.00 µM | Efflux ratio [1]: 8.00 | IC50 (IMP-1): 137 nM | IC50 (VIM-1): 4.43 nM | MB9799 MITC95 P. aeruginosa uM Efflux Mutant [2]: 3.13 µM | CLB30016 E. coli MITC95 NDM [3]: 1.56 µM | CL5741 S. marcescens MITC95 IMP [4]: 3.13 µM | IHMA599644 K. pneumoniae MITC95 VIM [5]: 0.78 µM | IC50 (NDM-1): 110 nM

NS(=O)(=O)c1ccc(N2CCC3(CCNCC3)C2=O)c(-c2nn[nH]n2)c1S(N)(=O)=O [Example 134, 4-(1-oxo-2,8-diazaspiro[4.5]decan-2-yl)-3-(2H-tetrazol-5-yl)benzene-1,2-disulfonamide]
MB9798 MITC95 P. aeruginosa uM Efflux WT [1]: 50.00 µM | Efflux ratio [1]: 8.00 | IC50 (IMP-1): 480 nM | IC50 (VIM-1): 62.9 nM | MB9799 MITC95 P. aeruginosa uM Efflux Mutant [2]: 6.25 µM | CLB30016 E. coli MITC95 NDM [3]: 6.25 µM | CL5741 S. marcescens MITC95 IMP [4]: 12.50 µM | IHMA599644 K. pneumoniae MITC95 VIM [5]: 6.25 µM | IC50 (NDM-1): 182 nM

N[C@H]1CCCN(c2ccc(S(=O)(=O)C3CNC3)c(S(N)(=O)=O)c2-c2nnn[nH]2)C1 [Example 29, (S)-3-(3-aminopiperidin-1-yl)-6-(azetidin-3-ylsulfonyl)-2-(1H-tetrazol-5-yl)benzenesulfonamide]
MB9798 MITC95 P. aeruginosa uM Efflux WT [1]: 25.00 µM | Efflux ratio [1]: 8.00 | IC50 (IMP-1): 229 nM | IC50 (VIM-1): 9.45 nM | MB9799 MITC95 P. aeruginosa uM Efflux Mutant [2]: 3.13 µM | CLB30016 E. coli MITC95 NDM [3]: 1.56 µM | CL5741 S. marcescens MITC95 IMP [4]: 6.25 µM | IHMA599644 K. pneumoniae MITC95 VIM [5]: 0.78 µM | IC50 (NDM-1): 86 nM

NC1CCCN(c2ccc(S(=O)(=O)C3CNC3)c(S(N)(=O)=O)c2-c2nnn[nH]2)CC1 (stereo not drawn) [Example 32, 3-(4-aminoazepan-1-yl)-6-(azetidin-3-ylsulfonyl)-2-(1H-tetrazol-5-yl)benzenesulfonamide]
MB9798 MITC95 P. aeruginosa uM Efflux WT [1]: 12.50 µM | Efflux ratio [1]: 4.00 | IC50 (IMP-1): 191 nM | IC50 (VIM-1): 2.14 nM | MB9799 MITC95 P. aeruginosa uM Efflux Mutant [2]: 3.13 µM | CLB30016 E. coli MITC95 NDM [3]: 6.25 µM | CL5741 S. marcescens MITC95 IMP [4]: 3.13 µM | IHMA599644 K. pneumoniae MITC95 VIM [5]: 1.56 µM | IC50 (NDM-1): 122 nM

From patent US11207312B2, “Metallo-beta-lactamase inhibitors and methods of use thereof” (priority 2017, dated 2021)
